{
  "source": "paper PMC8501045",
  "about": "“Addressing MRSA infection and antibacterial resistance with peptoid polymers” (Nature Communications, 2021)",
  "key": {"S. aureus ATCC6538": {"system": "S. aureus ATCC6538", "test": "Bacterial killing kinetics", "format": "cell-based, Staphylococcus aureus", "conditions": "after 4 h of treatment"}, "S. aureus USA300 LAC": {"system": "S. aureus USA300 LAC", "test": "Mouse peritonitis model, CFU in organs, blood and IP fluid, MRSA", "format": "in vivo", "conditions": "Figure 6d", "method": "(§1) This infection model was conducted according to the previously reported method with slight modification. Female ICR mice (21–24 g) were used for MRSA-infected peritonitis model. Mice were infected by intraperitoneal administration of 0.2 mL of S. aureus USA300 LAC in saline (7.5 × 10^8 CFU/mL) supplemented with 5% mucin. […] Once the infected mice died, peritoneal lavage was performed by injecting 3.0 mL of saline into the peritoneal cavity and massaging the abdomen. Subsequently, the abdomen was opened and peritoneal fluid was recovered from the abdominal cavity for analysis. Blood samples were collected through cardiac puncture for analysis of CFU/mL. Then, different organs including the heart, liver, spleen, lung, and kidney were removed and homogenized in 0.1% TX-100 solution. The homogenate was serially diluted for plating on LB agar. After incubation at 37 °C for 14 h, the number of colonies on the plate was counted to calculate the bacteria burden. Surviving mice were euthanized at 48 h after infection. The blood, peritoneal fluid, and organs were collected for the determination of bacterial colonies. […] For the pretreatment group, mice were sacrificed and tissues were harvested to determine the CFU at 1 h post infection."}, "S. haemolyticus 0202": {"system": "S. haemolyticus 0202", "test": "Mouse peritonitis model, CFU in organs, blood and IP fluid, S. haemolyticus", "format": "in vivo", "conditions": "Figure 6f; IP fluid; individual mouse 1 of 6", "method": "as §1\nFor experiments of S. epidermidis and S. haemolyticus infections, female ICR mice (22–24 g) were rendered neutropenic by treatment with 150 and 100 mg/kg of cyclophosphamide intraperitoneally at 4 days and 1 day prior to infection. Mice were infected by intraperitoneal administration of 0.2 mL of S. epidermidis 9397 (5.1 × 10^9 CFU/mL) or S. haemolyticus 0202 (2.6 × 10^9 CFU/mL) in saline. Other experiment conditions were similar to those in MRSA peritonitis model."}},
  "data": [
    {"smiles": "CN[C@H](CC(C)C)C(=O)N[C@H]1C(=O)N[C@@H](CC(N)=O)C(=O)N[C@H]2C(=O)N[C@H]3C(=O)N[C@H](C(=O)N[C@H](C(=O)O)c4cc(O)cc(O)c4-c4cc3ccc4O)[C@H](O)c3ccc(c(Cl)c3)Oc3cc2cc(c3O[C@@H]2O[C@H](CO)[C@@H](O)[C@H](O)[C@H]2O[C@H]2C[C@](C)(N)[C@H](O)[C@H](C)O2)Oc2ccc(cc2Cl)[C@H]1O", "note": "[Vancomycin]", "values": [
      {"measurement": "reduction of the bacteria", "setting": "S. aureus ATCC6538", "result": "about 0.3 log"},
      {"measurement": "Log10(CFU/mL IP fluid)", "setting": "S. aureus USA300 LAC; individual mouse 1 of 6", "result": "3.724 Log10(CFU/mL)"},
      {"measurement": "Log10(CFU/mL IP fluid)", "setting": "S. aureus USA300 LAC; individual mouse 2 of 6", "result": "3.912 Log10(CFU/mL)"},
      {"measurement": "Log10(CFU/mL IP fluid)", "setting": "S. aureus USA300 LAC; individual mouse 3 of 6", "result": "2.845 Log10(CFU/mL)"},
      {"measurement": "Log10(CFU/mL IP fluid)", "setting": "S. aureus USA300 LAC; individual mouse 4 of 6", "result": "3.255 Log10(CFU/mL)"},
      {"measurement": "Log10(CFU/mL IP fluid)", "setting": "S. aureus USA300 LAC; individual mouse 5 of 6", "result": "3.595 Log10(CFU/mL)"},
      {"measurement": "Log10(CFU/mL IP fluid)", "setting": "S. aureus USA300 LAC; individual mouse 6 of 6", "result": "1.824 Log10(CFU/mL)"},
      {"measurement": "Log10(CFU/mL Blood)", "setting": "S. aureus USA300 LAC; individual mouse 1 of 6", "result": "1.824 Log10(CFU/mL)"},
      {"measurement": "Log10(CFU/mL Blood)", "setting": "S. aureus USA300 LAC; individual mouse 2 of 6", "result": "3.213 Log10(CFU/mL)"},
      {"measurement": "Log10(CFU/mL Blood)", "setting": "S. aureus USA300 LAC; individual mouse 3 of 6", "result": "3.885 Log10(CFU/mL)"},
      {"measurement": "Log10(CFU/mL Blood)", "setting": "S. aureus USA300 LAC; individual mouse 4 of 6", "result": "1.523 Log10(CFU/mL)"},
      {"measurement": "Log10(CFU/mL Blood)", "setting": "S. aureus USA300 LAC; individual mouse 5 of 6", "result": "2.222 Log10(CFU/mL)"},
      {"measurement": "Log10(CFU/mL Blood)", "setting": "S. aureus USA300 LAC; individual mouse 6 of 6", "result": "0 Log10(CFU/mL)"},
      {"measurement": "Log10(CFU/g Heart)", "setting": "S. aureus USA300 LAC; individual mouse 1 of 6", "result": "0 Log10(CFU/g)"},
      {"measurement": "Log10(CFU/g Heart)", "setting": "S. aureus USA300 LAC; individual mouse 2 of 6", "result": "2.523 Log10(CFU/g)"},
      {"measurement": "Log10(CFU/g Heart)", "setting": "S. aureus USA300 LAC; individual mouse 3 of 6", "result": "2.824 Log10(CFU/g)"},
      {"measurement": "Log10(CFU/g Heart)", "setting": "S. aureus USA300 LAC; individual mouse 4 of 6", "result": "2.824 Log10(CFU/g)"},
      {"measurement": "Log10(CFU/g Heart)", "setting": "S. aureus USA300 LAC; individual mouse 5 of 6", "result": "3 Log10(CFU/g)"},
      {"measurement": "Log10(CFU/g Heart)", "setting": "S. aureus USA300 LAC; individual mouse 6 of 6", "result": "0 Log10(CFU/g)"},
      {"measurement": "Log10(CFU/g Kidney)", "setting": "S. aureus USA300 LAC; individual mouse 1 of 6", "result": "3.222 Log10(CFU/g)"},
      {"measurement": "Log10(CFU/g Kidney)", "setting": "S. aureus USA300 LAC; individual mouse 2 of 6", "result": "4.951 Log10(CFU/g)"},
      {"measurement": "Log10(CFU/g Kidney)", "setting": "S. aureus USA300 LAC; individual mouse 3 of 6", "result": "4.845 Log10(CFU/g)"},
      {"measurement": "Log10(CFU/g Kidney)", "setting": "S. aureus USA300 LAC; individual mouse 4 of 6", "result": "2.824 Log10(CFU/g)"},
      {"measurement": "Log10(CFU/g Kidney)", "setting": "S. aureus USA300 LAC; individual mouse 5 of 6", "result": "2.523 Log10(CFU/g)"},
      {"measurement": "Log10(CFU/g Kidney)", "setting": "S. aureus USA300 LAC; individual mouse 6 of 6", "result": "4.247 Log10(CFU/g)"},
      {"measurement": "Log10(CFU/g Liver)", "setting": "S. aureus USA300 LAC; individual mouse 1 of 6", "result": "3.125 Log10(CFU/g)"},
      {"measurement": "Log10(CFU/g Liver)", "setting": "S. aureus USA300 LAC; individual mouse 2 of 6", "result": "4.501 Log10(CFU/g)"},
      {"measurement": "Log10(CFU/g Liver)", "setting": "S. aureus USA300 LAC; individual mouse 3 of 6", "result": "3.477 Log10(CFU/g)"},
      {"measurement": "Log10(CFU/g Liver)", "setting": "S. aureus USA300 LAC; individual mouse 4 of 6", "result": "4.398 Log10(CFU/g)"},
      {"measurement": "Log10(CFU/g Liver)", "setting": "S. aureus USA300 LAC; individual mouse 5 of 6", "result": "3.699 Log10(CFU/g)"},
      {"measurement": "Log10(CFU/g Liver)", "setting": "S. aureus USA300 LAC; individual mouse 6 of 6", "result": "3.699 Log10(CFU/g)"},
      {"measurement": "Log10(CFU/g Lung)", "setting": "S. aureus USA300 LAC; individual mouse 2 of 6", "result": "4.23 Log10(CFU/g)"},
      {"measurement": "Log10(CFU/g Lung)", "setting": "S. aureus USA300 LAC; individual mouse 3 of 6", "result": "3.125 Log10(CFU/g)"},
      {"measurement": "Log10(CFU/g Lung)", "setting": "S. aureus USA300 LAC; individual mouse 5 of 6", "result": "3 Log10(CFU/g)"},
      {"measurement": "Log10(CFU/g Lung)", "setting": "S. aureus USA300 LAC; individual mouse 6 of 6", "result": "3 Log10(CFU/g)"},
      {"measurement": "Log10(CFU/g Spleen)", "setting": "S. aureus USA300 LAC; individual mouse 1 of 6", "result": "3.426 Log10(CFU/g)"},
      {"measurement": "Log10(CFU/g Spleen)", "setting": "S. aureus USA300 LAC; individual mouse 2 of 6", "result": "4.689 Log10(CFU/g)"},
      {"measurement": "Log10(CFU/g Spleen)", "setting": "S. aureus USA300 LAC; individual mouse 3 of 6", "result": "3.885 Log10(CFU/g)"},
      {"measurement": "Log10(CFU/g Spleen)", "setting": "S. aureus USA300 LAC; individual mouse 4 of 6", "result": "4.404 Log10(CFU/g)"},
      {"measurement": "Log10(CFU/g Spleen)", "setting": "S. aureus USA300 LAC; individual mouse 5 of 6", "result": "4.222 Log10(CFU/g)"},
      {"measurement": "Log10(CFU/g Spleen)", "setting": "S. aureus USA300 LAC; individual mouse 6 of 6", "result": "4.204 Log10(CFU/g)"},
      {"measurement": "Log10(CFU/mL IP fluid)", "setting": "S. haemolyticus 0202", "result": "3.226 Log10(CFU/mL)"}
    ]}
  ]
}
